In publication PMC5617480 (Oncotarget, 2017):
Read-outs that look alike come from different tables or passages of the source.

Key:
[1] = system: FPu18T (DNA, G4) AGGGTGGGGAGGGTGGGG; assay: FRET melting; details: 100 mM K+; 10 mM Tris-HCl, pH 7.35; 2.0 μM compound, 1.0 μM DNA
HL-7702 normal cells = assay: Cytotoxicity assay (MTT assay); type: cell-based, human; details: for Inhibitory rates (%): HL-7702, 20 μM; for IC50: HL-7702, 24 h
Experimental: (§1) To evaluate the cytotoxicity of chiral platinum(II) complexes, HeLa, BEL-7402, MGC80-3, BEL-7404, A549, Hep-G2 and HL-7702 cells (normal cells) were treated with varying concentrations of complexes 1–6 and cisplatin (positive control, cisplatin was dissolved at a concentration of 1.0 mM in 0.154 M NaCl) for 24 h and 48 h. The cell viability of each experimental group was examined by MTT assays. […] [61, 62].
(§2) Materials 100 U/mL penicillin and 100 μg/mL streptomycin in 25 cm2 culture flasks at 37 °C humidified atmosphere with Tris, RNase A, and propidium iodide (PI) were 5% CO2. All cells to be tested in the following assays have purchased from Sigma. The antibody of mutp53, a passage number of 3-6. […]
(§3) were purchased from Abcam. Unless otherwise stated, BEL-7404, A549, and Hep-G2 cancer-cell lines and HL-spectroscopic titration experiments were carried out in 7702 normal cells) per well were seeded in triplicate in TBS (10 mM pH7.35 Tris-HCl, containing 100 mM KCl). 96-well plates and incubated for 24 h at 37 °C and 5.0% The total RNA isolation kit and the two-step RT-PCR kit CO2/95.0% air. Then graded amounts of compound were purchased from TIANGEN. DNA oligomers (highly added to the wells in 10.0 μL of FBS free culture medium polymerized stored at 4 °C; long-term storage at −20 °C) and the plates were incubated in a 5% CO2 humidified are listed in Supplementary Table 1 and were obtained from atmosphere for 24 h and 48 h. Six replica wells were used Shanghai Sangon Biological Engineering Technology & as controls. Each the cells were grew for 12.0 h before Services (Shanghai, China). All tumor cell lines (HeLa, treatment to reach 70.0% confluency and 20.0 μL of tested BEL-7402, MGC80-3, BEL-7404, A549, Hep-G2 cancer- various concentrations of compounds were added to each cell lines and normal liver cell line HL-7702) were obtained well. The final concentration of the tested complexes from the Shanghai Institute for Biological Science (China). or compounds were kept at 1.25, 2.5, 5, 10, 20 μM, Stock solutions of all the compounds (2.0 mM) were made respectively. After 24 h or 48 h of culture, 0.1 mg of in DMSO, and further dilutions to working concentrations MTT (in 20 μL of PBS) was added to each well, and cells were made with corresponding buffer. were incubated at 37 °C for 6 h. The formed formazan crystals were then dissolved in 100 μL of DMSO and the Instrumentation absorbance was read by enzyme labeling instrument with Infrared spectra were obtained on a Perkine Elmer 490/630 nm double wavelength measurement. The final FT-IR Spectrometer. Elemental analyses (C, H, N) IC50 values were calculated by the Bliss method (n = 5). were carried out on a Perkin Elmer Series II CHNS/O All tests were repeated in at least three independent trials. […]

BEL-7404 cells = assay: Cytotoxicity assay (MTT assay); type: cell-based, human; details: for Inhibitory rates (%): BEL-7404, 20 μM; for IC50: BEL-7404, 24 h
Experimental: as §1, with “62]. […] Therefore, complex 6 (10 μM) was selected for cell apoptosis analysis by flow-cytometry, RT-PCR, caspase-3/9 activation assays, western blot and transfection assays in BEL-7404 cells for 24 h. In addition, this observed difference in in vitro cytotoxicity between the three complexes 4–6 could be due to the influence of the chirality of the FOA ligand [68]. […]” for “62].”
as §2, §3
(§4) 10.0 min. The cell pellet obtained was dissolved in 1.0 M
(§5) The region between 200 and 400 nm was scanned for each NaOH (1.0 mL) and diluted with 2.0% (v/v) HNO3 (5.0 sample. MTT assay was performed on M1000 microplate mL) for determining whole cell Pt content. Another set reader (Tecan Trading Co. Ltd, Shanghai, China). Cell was treated similarly, nuclear proteins, nuclear fraction, cycle and apoptosis analysis was recorded on FACS Aria cytoplasmic protein, membrane proteins and other fraction II Flow Cytometer (BD Biocsiences, San Jose, USA). were isolated as described by Chen and Schreiber et al. And the each final solution was made up to 5.0 mL
(§6) Cytotoxicity assay (MTT assay) using 2.0% (v/v) HNO3. The amount of Pt taken up by the cells was determined by ICP-MS. The instrument was […]

MGC80-3 cells = assay: Cytotoxicity assay (MTT assay); type: cell-based, human; details: for Inhibitory rates (%): MGC80-3, 20 μM; for IC50: MGC80-3, 24 h
Experimental: as §1, with “62]. […] Therefore, complex 6 (10 μM) was selected for cell apoptosis analysis by flow-cytometry, RT-PCR, caspase-3/9 activation assays, western blot and transfection assays in BEL-7404 cells for 24 h. In addition, this observed difference in in vitro cytotoxicity between the three complexes 4–6 could be due to the influence of the chirality of the FOA ligand [68]. […]” for “62].”
as §2, §3, §4, §5, §6

A549 cells = assay: Cytotoxicity assay (MTT assay); type: cell-based, human; details: for Inhibitory rates (%): A549, 20 μM; for IC50: A549, 24 h
Experimental: as §1, with “62]. […] Therefore, complex 6 (10 μM) was selected for cell apoptosis analysis by flow-cytometry, RT-PCR, caspase-3/9 activation assays, western blot and transfection assays in BEL-7404 cells for 24 h. In addition, this observed difference in in vitro cytotoxicity between the three complexes 4–6 could be due to the influence of the chirality of the FOA ligand [68]. […]” for “62].”
as §2, §3, §4, §5, §6

HeLa cells [2] = assay: Cytotoxicity assay (MTT assay); type: cell-based, human; details: for Inhibitory rates (%): 20 μM
Experimental: as §1, with “62]. […] Therefore, complex 6 (10 μM) was selected for cell apoptosis analysis by flow-cytometry, RT-PCR, caspase-3/9 activation assays, western blot and transfection assays in BEL-7404 cells for 24 h. In addition, this observed difference in in vitro cytotoxicity between the three complexes 4–6 could be due to the influence of the chirality of the FOA ligand [68]. […]” for “62].”
as §2, §3, §4, §5, §6

BEL-7402 cells = assay: Cytotoxicity assay (MTT assay); type: cell-based, human; details: for Inhibitory rates (%): BEL-7402, 20 μM; for IC50: BEL-7402, 24 h
Experimental: as §1, with “62]. […] Therefore, complex 6 (10 μM) was selected for cell apoptosis analysis by flow-cytometry, RT-PCR, caspase-3/9 activation assays, western blot and transfection assays in BEL-7404 cells for 24 h. In addition, this observed difference in in vitro cytotoxicity between the three complexes 4–6 could be due to the influence of the chirality of the FOA ligand [68]. […]” for “62].”
as §2, §3, §4, §5, §6

Hep-G2 cells [3] = assay: Cytotoxicity assay (MTT assay); type: cell-based, human; details: for Inhibitory rates (%): Hep-G2, 20 μM; for IC50: Hep-G2, 24 h
Experimental: as §1, with “62]. […] Therefore, complex 6 (10 μM) was selected for cell apoptosis analysis by flow-cytometry, RT-PCR, caspase-3/9 activation assays, western blot and transfection assays in BEL-7404 cells for 24 h. In addition, this observed difference in in vitro cytotoxicity between the three complexes 4–6 could be due to the influence of the chirality of the FOA ligand [68]. […]” for “62].”
as §2, §3, §4, §5, §6

Hep-G2 cells [4] = system: Hep-G2 cells; set-up: method as in earlier work; details: Hep-G2, 48 h; ref [1]; cited from earlier work
HeLa cells [5] = system: HeLa cells; set-up: method as in earlier work; details: 48 h, ref [1]; cited from earlier work
c-kit-1 = system: c-kit-1; set-up: method as in earlier work; details: ref [1], cited from earlier work; for ctDNADC50/c-kit-1DC50: FID selectivity ratio; for c-kit-1DC50: FID

Row | ΔTm [1] [°C] | SMILES | selectivity index factor, IC50 (normal HL-7702 cells)/IC50 (BEL-7404 tumor cells) (HL-7702 normal cells; 24 h) | Inhibitory rates (%) (HL-7702 normal cells; 24 h) | Inhibitory rates (%) (HL-7702 normal cells; 48 h) | IC50 (HL-7702 normal cells) [µM] | Inhibitory rates (%) (BEL-7404 cells; 24 h) | Inhibitory rates (%) (BEL-7404 cells; 48 h) | IC50 (BEL-7404 cells) [µM] | Inhibitory rates (%) (MGC80-3 cells; 24 h) | Inhibitory rates (%) (MGC80-3 cells; 48 h) | IC50 (MGC80-3 cells) [µM] | Inhibitory rates (%) (A549 cells; 24 h) | Inhibitory rates (%) (A549 cells; 48 h) | IC50 (A549 cells) [µM] | Inhibitory rates (%) (HeLa cells [2]; 24 h) | Inhibitory rates (%) (HeLa cells [2]; 48 h) | IC50 (HeLa cells [2]; 24 h) [µM] | Inhibitory rates (%) (BEL-7402 cells; 24 h) | Inhibitory rates (%) (BEL-7402 cells; 48 h) | IC50 (BEL-7402 cells) [µM] | also measured
1 | 16.66 | O=C(NC[C@@H](O)CO)c1cnc2c3c(cccc13)-c1ccccc1C2=O.[Cl-].[Cl-].[Pt+2] [ligand 2, R-(+)-FOA] | 1.4 | 25.2 ± 0.3 | 30.6 ± 2.1 | 101.8 ± 0.4 | 25.1 ± 1.2 | 50.0 ± 0.6 | 72.3 ± 1 | 9.6 ± 0.6 | 19.6 ± 0.8 | 158.1 ± 0.6 | 28.9 ± 1.4 | 47.9 ± 0.9 | 67.2 ± 1.5 | 18.9 ± 0.6 | 26.8 ± 1.2 | 87.5 ± 0.8 | 17.0 ± 0.6 | 22.3 ± 1.1 | 94.1 ± 0.5 | Inhibitory rates (%) (Hep-G2 cells [3]; 24 h): 17.5 ± 0.4%; Inhibitory rates (%) (Hep-G2 cells [3]; 48 h): 23.6 ± 2.3%; IC50 (Hep-G2 cells [3]): 90.6 ± 0.3 µM; IC50 (Hep-G2 cells [4]): 38.9 ± 1.3 µM; IC50 (HeLa cells [5]): 28.5 ± 0.3 µM; ctDNADC50/c-kit-1DC50 (c-kit-1): < 0.40; c-kit-1DC50 (c-kit-1): > 100 µM
2 | 23.01 | O=C(NC[C@H](O)CO)c1cnc2c3c(cccc13)-c1ccccc1C2=O.[Cl-].[Cl-].[Pt+2] [ligand 3, S-(–)-FOA] | 3.5 | 23.4 ± 0.9 | 27.5 ± 1.2 | 105.3 ± 1 | 42.8 ± 0.4 | 64.8 ± 1.3 | 30.1 ± 0.7 | 24.2 ± 0.5 | 28.2 ± 1.4 | 78.2 ± 0.7 | 37.2 ± 0.8 | 51.2 ± 3.4 | 36.4 ± 1 | 31.2 ± 0.4 | 36.6 ± 1.5 | 43.2 ± 0.4 | 35.1 ± 1.3 | 41.8 ± 2.5 | 45.8 ± 1.4 | Inhibitory rates (%) (Hep-G2 cells [3]; 24 h): 24.9 ± 0.8%; Inhibitory rates (%) (Hep-G2 cells [3]; 48 h): 29.3 ± 0.9%; IC50 (Hep-G2 cells [3]): 70.1 ± 0.8 µM; IC50 (Hep-G2 cells [4]): 24.9 ± 0.4 µM; IC50 (HeLa cells [5]): 22.9 ± 0.7 µM; ctDNADC50/c-kit-1DC50 (c-kit-1): 36.66; c-kit-1DC50 (c-kit-1): 2.45 µM
